Data from BindingDB's records for doi:10.1021/jm990041+ (Rhone-Poulenc Rorer, 1999).

Columns and labels:
Serine protease 1 = molecular target: T1, Serine protease 1 (Bos taurus, UniProt P00760); assay: Enzyme Assay and Determination of the Inhibition Constants.
T1 sequence (P00760 whole entry): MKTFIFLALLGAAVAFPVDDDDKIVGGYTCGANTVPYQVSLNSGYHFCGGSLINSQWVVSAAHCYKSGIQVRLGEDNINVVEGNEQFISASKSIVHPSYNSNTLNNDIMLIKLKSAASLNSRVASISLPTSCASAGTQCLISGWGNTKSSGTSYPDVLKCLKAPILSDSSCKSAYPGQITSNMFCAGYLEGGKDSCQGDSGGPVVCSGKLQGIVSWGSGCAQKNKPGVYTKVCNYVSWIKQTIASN

Coagulation factor X = Coagulation factor X (Homo sapiens, UniProt P00742); assay: as above
Chain of Coagulation factor X (P00742 41-179 limits assumed): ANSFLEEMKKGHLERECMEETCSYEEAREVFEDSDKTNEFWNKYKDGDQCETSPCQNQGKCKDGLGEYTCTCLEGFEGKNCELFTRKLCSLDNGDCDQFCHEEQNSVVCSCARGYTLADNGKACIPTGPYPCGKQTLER
Chain of Coagulation factor X (P00742 235-488 limits assumed): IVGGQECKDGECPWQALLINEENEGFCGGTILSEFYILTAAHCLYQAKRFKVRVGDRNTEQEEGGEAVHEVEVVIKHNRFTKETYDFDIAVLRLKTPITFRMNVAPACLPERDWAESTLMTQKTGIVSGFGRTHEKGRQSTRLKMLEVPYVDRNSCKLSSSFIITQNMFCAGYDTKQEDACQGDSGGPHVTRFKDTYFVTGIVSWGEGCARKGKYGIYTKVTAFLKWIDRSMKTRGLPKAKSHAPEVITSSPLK

Ki (Serine protease 1; pH 7.5, 22 °C)	Ki (Serine protease 1)	SMILES	further results
–	> 2900 nM	C[n+]1ccc(-c2ccc(S(=O)(=O)N[C@H]3CCN(Cc4cccc(C(=N)N)c4)C3=O)cc2)cc1 [4-(4-{[(3S)-1-[(3-carbamimidoylphenyl)methyl]-2-oxopyrrolidin-3-yl]sulfamoyl}phenyl)-1-methylpyridin-1-ium]	Ki (Coagulation factor X): > 1000 nM
–	> 2900 nM	N=C(N)c1cccc(CN2CC[C@H](NS(=O)(=O)c3ccc(-c4cc[n+]([O-])cc4)cc3)C2=O)c1 [4-(4-{[(3S)-1-[(3-carbamimidoylphenyl)methyl]-2-oxopyrrolidin-3-yl]sulfamoyl}phenyl)-1-oxidopyridin-1-ium]	–
–	1700 nM	N=C(N)c1ccc(N)c(CN2CC[C@H](NS(=O)(=O)c3ccc(-c4ccon4)s3)C2=O)c1 [4-Amino-3-[3-(S)-(5-isoxazol-3-ylthiophene-2-ylsulfonylamino)-2-oxopyrrolidin-1-ylmethyl]benzamidine]	–
–	1500 nM	N=C(N)c1ccc(N)c(CN2CC[C@H](NS(=O)(=O)c3ccc(-c4cccnc4)s3)C2=O)c1 [4-amino-3-{[(3S)-2-oxo-3-{[5-(pyridin-3-yl)thiophene-2-]sulfonamido}pyrrolidin-1-yl]methyl}benzene-1-carboximidamide]	–
189 nM	–	COc1ccc2ccc(S(=O)(=O)N(C)[C@H]3CCN(Cc4cc(C(=N)N)ccc4N)C3=O)cc2c1 [4-amino-3-{[(3S)-3-[(7-methoxynaphthalene-2-)(methyl)sulfonamido]-2-oxopyrrolidin-1-yl]methyl}benzene-1-carboximidamide]	–
299 nM	–	COc1ccc2ccc(S(=O)(=O)N[C@H]3CCN(Cc4cc(C(=N)N)ccc4N)C3=O)cc2c1 [4-amino-3-{[(3S)-3-[(7-methoxynaphthalene-2-)sulfonamido]-2-oxopyrrolidin-1-yl]methyl}benzene-1-carboximidamide]	–
–	> 2900 nM	N=C(N)c1ccc(F)c(CN2CC[C@H](NS(=O)(=O)c3ccc(-c4cccnc4)s3)C2=O)c1 [4-fluoro-3-[((3S)-2-oxo-3-{[(5-pyridin-3-ylthien-2-yl)sulfonyl]amino}pyrrolidin-1-yl)methyl]benzenecarboximidamide]	–
305 nM	–	COc1ccc2ccc(S(=O)(=O)N[C@H]3CCN(Cc4cc(C(=N)N)ccc4O)C3=O)cc2c1 [4-hydroxy-3-{[(3S)-3-[(7-methoxynaphthalene-2-)sulfonamido]-2-oxopyrrolidin-1-yl]methyl}benzene-1-carboximidamide]	–
–	2900 nM	N=C(N)c1ccc(O)c(CN2CC[C@H](NS(=O)(=O)c3ccc(-c4ccon4)s3)C2=O)c1 [4-hydroxy-3-{[(3S)-3-{[5-(1,2-oxazol-3-yl)thiophene-2-]sulfonamido}-2-oxopyrrolidin-1-yl]methyl}benzene-1-carboximidamide]	–
> 2900 nM	–	COc1ccc2ccc(S(=O)(=O)N(C)[C@H]3CCN(Cc4cc(C(=N)N)ccc4NC(C)=O)C3=O)cc2c1 [N-(4-carbamimidoyl-2-{[(3S)-3-[(7-methoxynaphthalene-2-)(methyl)sulfonamido]-2-oxopyrrolidin-1-yl]methyl}phenyl)acetamide]	–
12 nM	–	COC(=O)COc1ccc(C(=N)N)cc1CN1CC[C@H](NS(=O)(=O)c2ccc3ccc(OC)cc3c2)C1=O [methyl 2-(4-carbamimidoyl-2-{[(3S)-3-[(7-methoxynaphthalene-2-)sulfonamido]-2-oxopyrrolidin-1-yl]methyl}phenoxy)acetate]	–

The next lines start with the compound.

SMILES	Ki (Serine protease 1; pH 7.5, 22 °C)	Ki (Serine protease 1)	further results
COc1ccc2ccc(S(=O)(=O)N[C@H]3CCN(Cc4cc(C(=N)N)ccc4OCC(=O)O)C3=O)cc2c1 [2-(4-carbamimidoyl-2-{[(3S)-3-[(7-methoxynaphthalene-2-)sulfonamido]-2-oxopyrrolidin-1-yl]methyl}phenoxy)acetic acid]	> 2900 nM	–	–
COc1ccc2ccc(S(=O)(=O)N[C@H]3CCN(Cc4ccc(O)c(C(=N)N)c4)C3=O)cc2c1 [2-hydroxy-5-{[(3S)-3-[(7-methoxynaphthalene-2-)sulfonamido]-2-oxopyrrolidin-1-yl]methyl}benzene-1-carboximidamide]	> 2900 nM	–	–
COc1ccc2ccc(S(=O)(=O)N[C@H]3CCN(Cc4cc(N)cc(C(=N)N)c4)C3=O)cc2c1 [3-Amino-5-[3-(S)-(7-methoxynaphthalen-2-ylsulfonylamino)-2-oxopyrrolidin-1-ylmethyl]benzamidine]	> 2900 nM	–	–
N=C(N)c1cccc(CN2CC[C@H](NS(=O)(=O)c3ccc(-c4cccnc4)s3)C2=O)c1 [3-[2-Oxo-3-(S)-(5-pyridin-3-ylthiophene-2-ylsulfonylamino)-pyrrolidin-1-ylmethyl]benzamidine]	–	> 2900 nM	–
N=C(N)c1cccc(CN2CC[C@H](NS(=O)(=O)c3ccc(-c4ccon4)s3)C2=O)c1 [3-[3-(S)-(5-Isoxazol-3-ylthiophene-2-ylsulfonylamino)-2-oxopyrrolidin-1-ylmethyl]benzamidine]	–	1900 nM	–
N=C(N)c1cccc(CN2CC[C@H](NS(=O)(=O)c3ccc(-c4ccccc4)cc3)C2=O)c1 [3-{[(3S)-2-oxo-3-[(4-phenylbenzene)sulfonamido]pyrrolidin-1-yl]methyl}benzene-1-carboximidamide]	> 2900 nM	–	–
N=C(N)c1cccc(CN2CC[C@H](NS(=O)(=O)c3ccc(-c4ccccn4)cc3)C2=O)c1 [3-{[(3S)-2-oxo-3-{[4-(pyridin-2-yl)benzene]sulfonamido}pyrrolidin-1-yl]methyl}benzene-1-carboximidamide]	> 2900 nM	–	–
N=C(N)c1cccc(CN2CC[C@H](NS(=O)(=O)c3ccc(-c4cccnc4)cc3)C2=O)c1 [3-{[(3S)-2-oxo-3-{[4-(pyridin-3-yl)benzene]sulfonamido}pyrrolidin-1-yl]methyl}benzene-1-carboximidamide]	–	> 2900 nM	–
N=C(N)c1cccc(CN2CC[C@H](NS(=O)(=O)c3ccc(-c4ccncc4)cc3)C2=O)c1 [3-{[(3S)-2-oxo-3-{[4-(pyridin-4-yl)benzene]sulfonamido}pyrrolidin-1-yl]methyl}benzene-1-carboximidamide]	–	> 2900 nM	–
N=C(N)c1cccc(CN2CC[C@H](NS(=O)(=O)c3ccc(-c4ccccn4)s3)C2=O)c1 [3-{[(3S)-2-oxo-3-{[5-(pyridin-2-yl)thiophene-2-]sulfonamido}pyrrolidin-1-yl]methyl}benzene-1-carboximidamide]	–	2100 nM	–
N=C(N)c1cccc(CN2CC[C@H](NS(=O)(=O)c3ccc(-c4ccncc4)s3)C2=O)c1 [3-{[(3S)-2-oxo-3-{[5-(pyridin-4-yl)thiophene-2-]sulfonamido}pyrrolidin-1-yl]methyl}benzene-1-carboximidamide]	–	> 2900 nM	–
COc1ccc2ccc(S(=O)(=O)N(C)[C@H]3CCN(Cc4cccc(C(=N)N)c4)C3=O)cc2c1 [3-{[(3S)-3-[(7-methoxynaphthalene-2-)(methyl)sulfonamido]-2-oxopyrrolidin-1-yl]methyl}benzene-1-carboximidamide]	704 nM	–	–
COc1ccc2ccc(S(=O)(=O)N[C@H]3CCN(Cc4cccc(C(=N)N)c4)C3=O)cc2c1 [3-{[(3S)-3-[(7-methoxynaphthalene-2-)sulfonamido]-2-oxopyrrolidin-1-yl]methyl}benzene-1-carboximidamide]	853 nM	–	–
Cn1ccnc1-c1ccc(S(=O)(=O)N[C@H]2CCN(Cc3cccc(C(=N)N)c3)C2=O)cc1 [3-{[(3S)-3-{[4-(1-methyl-1H-imidazol-2-yl)benzene]sulfonamido}-2-oxopyrrolidin-1-yl]methyl}benzene-1-carboximidamide]	–	> 2900 nM	–
COc1nccc(-c2ccc(S(=O)(=O)N[C@H]3CCN(Cc4cccc(C(=N)N)c4)C3=O)s2)n1 [3-{[(3S)-3-{[5-(2-methoxypyrimidin-4-yl)thiophene-2-]sulfonamido}-2-oxopyrrolidin-1-yl]methyl}benzene-1-carboximidamide]	–	> 2900 nM	–
